Source: PubChem BioAssay AID2060615 (Molecular Pharmacology Branch, DTP, NCI, 2025)

System: 496974-208-R-J2-PDC complex spheroids, growth % test/control
Assay: Anticancer human tumor 496974-208-R-J2-PDC patient-derived pancreatic carcinoma cell line growth inhibition [CLK]
Conditions: for IC50: curve of first compound; for viability, T/C: stronger effect = lower value
Outline: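 Multi-cell-type spheroids combined patient-derived tumor cells with HUVEC endothelial cells and human mesenchymal stem cells. Paired agents were dosed in half-log steps down from about clinical Cmax, or from 10 microM where Cmax was unknown.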

[1] = second compound 0.0316 µM, first compound 0.0316 µM
[2] = second compound 0.0316 µM, first compound 0.1 µM
[3] = second compound 0.0316 µM, first compound 0.316 µM
[4] = second compound 0.0316 µM, first compound 1 µM
[5] = second compound 0.0316 µM, first compound 3.16 µM
[6] = second compound 0.0316 µM, first compound 10 µM
[7] = second compound 0.1 µM, first compound 0.0316 µM
[8] = second compound 0.1 µM, first compound 0.1 µM
[9] = second compound 0.1 µM, first compound 0.316 µM
[10] = second compound 0.1 µM, first compound 1 µM
[11] = second compound 0.1 µM, first compound 3.16 µM
[12] = second compound 0.1 µM, first compound 10 µM
[13] = second compound 0.316 µM, first compound 0.0316 µM
[14] = second compound 0.316 µM, first compound 0.1 µM
[15] = second compound 0.316 µM, first compound 0.316 µM
[16] = second compound 0.316 µM, first compound 1 µM
[17] = second compound 0.316 µM, first compound 3.16 µM
[18] = second compound 0.316 µM, first compound 10 µM
[19] = second compound 1 µM, first compound 0.0316 µM
[20] = second compound 1 µM, first compound 0.1 µM
[21] = second compound 1 µM, first compound 0.316 µM
[22] = second compound 1 µM, first compound 1 µM
[23] = second compound 1 µM, first compound 3.16 µM
[24] = second compound 1 µM, first compound 10 µM
[25] = second compound 3.16 µM, first compound 0.0316 µM
[26] = second compound 3.16 µM, first compound 0.1 µM
[27] = second compound 3.16 µM, first compound 0.316 µM
[28] = second compound 3.16 µM, first compound 1 µM
[29] = second compound 3.16 µM, first compound 3.16 µM
[30] = second compound 3.16 µM, first compound 10 µM
[31] = second compound 10 µM, first compound 0.0316 µM
[32] = second compound 10 µM, first compound 0.1 µM
[33] = second compound 10 µM, first compound 0.316 µM
[34] = second compound 10 µM, first compound 1 µM
[35] = second compound 10 µM, first compound 3.16 µM
[36] = second compound 10 µM, first compound 10 µM
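Note: spheroids exposed to the drugs for 7 days before readout.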
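Throughout, for viability, T/C: 100% = DMSO vehicle control wells.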

In the case of `CC1(C)CCC(CN2CCN(c3ccc(C(=O)NS(=O)(=O)c4ccc(NCC5CCOCC5)c([N+](=O)[O-])c4)c(Oc4cnc5[nH]ccc5c4)c3)CC2)=C(c2ccc(Cl)cc2)C1` + CN1CCN(c2cc(C(=O)Nc3cc4cc(-c5cnn(C)c5)ccc4cn3)ccn2)CC1, the IC50 (second compound 0.0316 µM) is reported as > 10 µM, the IC50 (second compound 0.1 µM) is reported as 8.06 µM and the IC50 (second compound 0.316 µM) is reported as < 0.0316 µM. For the same molecule, the IC50 (second compound 1 µM) was < 0.0316 µM, the IC50 (second compound 3.16 µM) was < 0.0316 µM and the IC50 (second compound 10 µM) was < 0.0316 µM. For the same molecule, the viability, T/C [1] was 93.7%, the viability, T/C [2] was 95.9% and the viability, T/C [3] was 101%. It also gave a viability, T/C [4] of 104%, a viability, T/C [5] of 92.1% and a viability, T/C [6] of 50.8%. It also gave a viability, T/C [7] of 80.3%, a viability, T/C [8] of 77.9% and a viability, T/C [9] of 86.7%. It also gave a viability, T/C [10] of 87.7%, a viability, T/C [11] of 84.9% and a viability, T/C [12] of 42.3%. The viability, T/C [13] was 5.92%, the viability, T/C [14] was 5.59% and the viability, T/C [15] was 5.97%. It also gave a viability, T/C [16] of 6.42%, a viability, T/C [17] of 3.9% and a viability, T/C [18] of 5.66%. For the same molecule, the viability, T/C [19] was 0.75%, the viability, T/C [20] was 0.68% and the viability, T/C [21] was 0.5%. It also gave a viability, T/C [22] of 0.5%, a viability, T/C [23] of 0.63% and a viability, T/C [24] of 2.1%. It also gave a viability, T/C [25] of 0.5%, a viability, T/C [26] of 0.74% and a viability, T/C [27] of 0.43%. The viability, T/C [28] was 0.7%, the viability, T/C [29] was 0.52% and the viability, T/C [30] was 3.57%. The viability, T/C [31] was 0.25%, the viability, T/C [32] was 1.16% and the viability, T/C [33] was 0.37%. For the same molecule, the viability, T/C [34] was 0.34%, the viability, T/C [35] was 0.32% and the viability, T/C [36] was 2.82%.

In the case of `CC1COCCN1c1cc(C2(S(C)(=N)=O)CC2)nc(-c2ccnc3[nH]ccc23)n1` (stereo not drawn) + CN1CCN(c2cc(C(=O)Nc3cc4cc(-c5cnn(C)c5)ccc4cn3)ccn2)CC1, the IC50 (second compound 0.0316 µM) is reported as 3.82 µM, the IC50 (second compound 0.1 µM) is reported as 1.93 µM and the IC50 (second compound 0.316 µM) is reported as < 0.0316 µM. The IC50 (second compound 1 µM) was < 0.0316 µM, the IC50 (second compound 3.16 µM) was < 0.0316 µM and the IC50 (second compound 10 µM) was < 0.0316 µM. It also gave a viability, T/C [1] of 107%, a viability, T/C [2] of 99.8% and a viability, T/C [3] of 102%. It also gave a viability, T/C [4] of 82.8%, a viability, T/C [5] of 53.3% and a viability, T/C [6] of 34.5%. The viability, T/C [7] was 94.5%, the viability, T/C [8] was 83.4% and the viability, T/C [9] was 73.3%. For the same molecule, the viability, T/C [10] was 70.1%, the viability, T/C [11] was 35.6% and the viability, T/C [12] was 22.4%. It also gave a viability, T/C [13] of 7.43%, a viability, T/C [14] of 5.54% and a viability, T/C [15] of 5.89%. It also gave a viability, T/C [16] of 5.38%, a viability, T/C [17] of 4.22% and a viability, T/C [18] of 5.13%. The viability, T/C [19] was 0.53%, the viability, T/C [20] was 0.67% and the viability, T/C [21] was 2.64%. The viability, T/C [22] was 0.45%, the viability, T/C [23] was 0.65% and the viability, T/C [24] was 1.19%. It also gave a viability, T/C [25] of 0.65%, a viability, T/C [26] of 0.51% and a viability, T/C [27] of 1.73%. It also gave a viability, T/C [28] of 0.46%, a viability, T/C [29] of 0.61% and a viability, T/C [30] of 0.43%. For the same molecule, the viability, T/C [31] was 0.36%, the viability, T/C [32] was 0.42% and the viability, T/C [33] was 1.59%. For the same molecule, the viability, T/C [34] was 0.41%, the viability, T/C [35] was 1.27% and the viability, T/C [36] was 1.47%.

`NC(=O)C(=Cn1cnc(-c2cc(C(F)(F)F)cc(C(F)(F)F)c2)n1)c1cncnc1` + CN1CCN(c2cc(C(=O)Nc3cc4cc(-c5cnn(C)c5)ccc4cn3)ccn2)CC1 was tested, and the IC50 (second compound 0.0316 µM) was 0.0804 µM, the IC50 (second compound 0.1 µM) was 0.042 µM and the IC50 (second compound 0.316 µM) was < 0.00949 µM. For the same molecule, the IC50 (second compound 1 µM) was < 0.00949 µM, the IC50 (second compound 3.16 µM) was < 0.00949 µM and the IC50 (second compound 10 µM) was < 0.00949 µM. For the same molecule, the viability, T/C (second compound 0.0316 µM, first compound 0.00949 µM) was 90.6%, the viability, T/C (second compound 0.0316 µM, first compound 0.03 µM) was 67.2% and the viability, T/C (second compound 0.0316 µM, first compound 0.0949 µM) was 52.1%. It also gave a viability, T/C (second compound 0.0316 µM, first compound 0.3 µM) of 21.3%, a viability, T/C (second compound 0.0316 µM, first compound 0.949 µM) of 16.9% and a viability, T/C (second compound 0.0316 µM, first compound 3 µM) of 11.8%. For the same molecule, the viability, T/C (second compound 0.1 µM, first compound 0.00949 µM) was 61.6%, the viability, T/C (second compound 0.1 µM, first compound 0.03 µM) was 56.5% and the viability, T/C (second compound 0.1 µM, first compound 0.0949 µM) was 35.2%. For the same molecule, the viability, T/C (second compound 0.1 µM, first compound 0.3 µM) was 12.4%, the viability, T/C (second compound 0.1 µM, first compound 0.949 µM) was 7.44% and the viability, T/C (second compound 0.1 µM, first compound 3 µM) was 2.92%. The viability, T/C (second compound 0.316 µM, first compound 0.00949 µM) was 2.46%, the viability, T/C (second compound 0.316 µM, first compound 0.03 µM) was 1.91% and the viability, T/C (second compound 0.316 µM, first compound 0.0949 µM) was 3.26%. For the same molecule, the viability, T/C (second compound 0.316 µM, first compound 0.3 µM) was 0.41%, the viability, T/C (second compound 0.316 µM, first compound 0.949 µM) was 0.31% and the viability, T/C (second compound 0.316 µM, first compound 3 µM) was 0.19%. The viability, T/C (second compound 1 µM, first compound 0.00949 µM) was 0.39%, the viability, T/C (second compound 1 µM, first compound 0.03 µM) was 0.4% and the viability, T/C (second compound 1 µM, first compound 0.0949 µM) was 0.64%. For the same molecule, the viability, T/C (second compound 1 µM, first compound 0.3 µM) was 0.44%, the viability, T/C (second compound 1 µM, first compound 0.949 µM) was 2.17% and the viability, T/C (second compound 1 µM, first compound 3 µM) was 0.11%. For the same molecule, the viability, T/C (second compound 3.16 µM, first compound 0.00949 µM) was 0.34%, the viability, T/C (second compound 3.16 µM, first compound 0.03 µM) was 0.4% and the viability, T/C (second compound 3.16 µM, first compound 0.0949 µM) was 0.41%. It also gave a viability, T/C (second compound 3.16 µM, first compound 0.3 µM) of 0.37%, a viability, T/C (second compound 3.16 µM, first compound 0.949 µM) of 0.26% and a viability, T/C (second compound 3.16 µM, first compound 3 µM) of 0.13%. The viability, T/C (second compound 10 µM, first compound 0.00949 µM) was 0.25%, the viability, T/C (second compound 10 µM, first compound 0.03 µM) was 0.23% and the viability, T/C (second compound 10 µM, first compound 0.0949 µM) was 1.86%. It also gave a viability, T/C (second compound 10 µM, first compound 0.3 µM) of 0.31%, a viability, T/C (second compound 10 µM, first compound 0.949 µM) of 0.24% and a viability, T/C (second compound 10 µM, first compound 3 µM) of 0.69%.

`Nc1ccccc1NC(=O)c1ccc(CNC(=O)OCc2cccnc2)cc1` + CN1CCN(c2cc(C(=O)Nc3cc4cc(-c5cnn(C)c5)ccc4cn3)ccn2)CC1 was tested, and the IC50 (second compound 0.0316 µM) was 4.3 µM, the IC50 (second compound 0.1 µM) was 4.37 µM and the IC50 (second compound 0.316 µM) was < 0.0316 µM. For the same molecule, the IC50 (second compound 1 µM) was < 0.0316 µM, the IC50 (second compound 3.16 µM) was < 0.0316 µM and the IC50 (second compound 10 µM) was < 0.0316 µM. It also gave a viability, T/C [1] of 105%, a viability, T/C [2] of 101% and a viability, T/C [3] of 94.3%. For the same molecule, the viability, T/C [4] was 81.4%, the viability, T/C [5] was 73.2% and the viability, T/C [6] was 0.89%. For the same molecule, the viability, T/C [7] was 77.5%, the viability, T/C [8] was 78.9% and the viability, T/C [9] was 80.3%. It also gave a viability, T/C [10] of 69.2%, a viability, T/C [11] of 69.4% and a viability, T/C [12] of 0.6%. For the same molecule, the viability, T/C [13] was 6.28%, the viability, T/C [14] was 4.96% and the viability, T/C [15] was 4.64%. For the same molecule, the viability, T/C [16] was 3.64%, the viability, T/C [17] was 2.12% and the viability, T/C [18] was 0.13%. It also gave a viability, T/C [19] of 0.53%, a viability, T/C [20] of 0.32% and a viability, T/C [21] of 0.35%. It also gave a viability, T/C [22] of 0.18%, a viability, T/C [23] of 0.21% and a viability, T/C [24] of 0.21%. For the same molecule, the viability, T/C [25] was 0.5%, the viability, T/C [26] was 0.4% and the viability, T/C [27] was 0.39%. For the same molecule, the viability, T/C [28] was 0.21%, the viability, T/C [29] was 0.2% and the viability, T/C [30] was 1.32%. The viability, T/C [31] was 0.22%, the viability, T/C [32] was 0.23% and the viability, T/C [33] was 0.27%. For the same molecule, the viability, T/C [34] was 0.22%, the viability, T/C [35] was 0.24% and the viability, T/C [36] was 1.53%.
